Data: ChEMBL document CHEMBL1136174, “Synthesis and antimycobacterial activity of capuramycin analogues. Part 1: substitution of the azepan-2-one moiety of capuramycin” (Bioorg Med Chem Lett, 2003)
Converted amounts (≈) assume the structure as drawn.

Experiments:
[1] = test system: Mycolicibacterium smegmatis; test: Antimycobacterial activity against Mycobacterium smegmatis (SANK 75075); type: functional
[2] = target: T1, Phospho-N-acetylmuramoyl-pentapeptide-transferase (Escherichia coli K-12, UniProt P0A6W3); test: Inhibitory activity against translocase I
T1 sequence (P0A6W3 whole entry): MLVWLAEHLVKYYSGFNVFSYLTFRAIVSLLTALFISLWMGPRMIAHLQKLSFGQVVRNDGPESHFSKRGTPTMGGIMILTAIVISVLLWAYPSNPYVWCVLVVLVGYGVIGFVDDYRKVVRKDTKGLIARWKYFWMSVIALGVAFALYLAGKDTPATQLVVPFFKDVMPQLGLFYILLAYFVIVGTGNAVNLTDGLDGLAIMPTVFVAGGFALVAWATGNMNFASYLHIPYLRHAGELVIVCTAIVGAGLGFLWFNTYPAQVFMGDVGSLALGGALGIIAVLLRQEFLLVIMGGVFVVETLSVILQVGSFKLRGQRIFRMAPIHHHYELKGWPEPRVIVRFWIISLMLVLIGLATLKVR

Compound	MIC [1] [µg/mL]	IC50 [2] [nM]
CO[C@H]1[C@@H](O)[C@H](n2ccc(=O)[nH]c2=O)O[C@@H]1[C@@H](O[C@H]1OC(C(=O)NCc2ccco2)=C[C@H](O)[C@@H]1O)C(N)=O	100 (≈ 186 µM)	520
CO[C@H]1[C@@H](O)[C@H](n2ccc(=O)[nH]c2=O)O[C@@H]1[C@@H](O[C@H]1OC(C(=O)NCc2ccc(C)cc2)=C[C@H](O)[C@@H]1O)C(N)=O	50 (≈ 88.9 µM)	2130
CO[C@H]1[C@@H](O)[C@H](n2ccc(=O)[nH]c2=O)O[C@@H]1[C@@H](O[C@H]1OC(C(=O)N2CCCC2)=C[C@H](O)[C@@H]1O)C(N)=O	> 100	820
COc1ccccc1CCNC(=O)C1=C[C@H](O)[C@H](O)[C@@H](O[C@@H](C(N)=O)[C@H]2O[C@@H](n3ccc(=O)[nH]c3=O)[C@H](O)[C@@H]2OC)O1	50 (≈ 84.4 µM)	54
CO[C@H]1[C@@H](O)[C@H](n2ccc(=O)[nH]c2=O)O[C@@H]1[C@@H](O[C@H]1OC(C(=O)N(C)c2ccccc2)=C[C@H](O)[C@@H]1O)C(N)=O	> 100	> 4560
CO[C@H]1[C@@H](O)[C@H](n2ccc(=O)[nH]c2=O)O[C@@H]1[C@@H](O[C@H]1OC(C(=O)NCc2cccs2)=C[C@H](O)[C@@H]1O)C(N)=O	50 (≈ 90.2 µM)	139
CO[C@H]1[C@@H](O)[C@H](n2ccc(=O)[nH]c2=O)O[C@@H]1[C@@H](O[C@H]1OC(C(=O)NCCCCO)=C[C@H](O)[C@@H]1O)C(N)=O	> 100	320
CO[C@H]1[C@@H](O)[C@H](n2ccc(=O)[nH]c2=O)O[C@@H]1[C@@H](O[C@H]1OC(C(=O)NCCO)=C[C@H](O)[C@@H]1O)C(N)=O	> 100	179
CO[C@H]1[C@@H](O)[C@H](n2ccc(=O)[nH]c2=O)O[C@@H]1[C@@H](O[C@H]1OC(C(=O)NCCc2ccc(C)cc2)=C[C@H](O)[C@@H]1O)C(N)=O	50 (≈ 86.7 µM)	59
CO[C@H]1[C@@H](O)[C@H](n2ccc(=O)[nH]c2=O)O[C@@H]1[C@@H](O[C@H]1OC(C(=O)NCCc2ccc(O)cc2)=C[C@H](O)[C@@H]1O)C(N)=O	50 (≈ 86.4 µM)	104
CO[C@H]1[C@@H](O)[C@H](n2ccc(=O)[nH]c2=O)O[C@@H]1[C@@H](O[C@H]1OC(C(=O)NCc2ccccc2)=C[C@H](O)[C@@H]1O)C(N)=O	50 (≈ 91.2 µM)	219
COc1cc(CNC(=O)C2=C[C@H](O)[C@H](O)[C@@H](O[C@@H](C(N)=O)[C@H]3O[C@@H](n4ccc(=O)[nH]c4=O)[C@H](O)[C@@H]3OC)O2)cc(OC)c1OC	> 100	658
CO[C@H]1[C@@H](O)[C@H](n2ccc(=O)[nH]c2=O)O[C@@H]1[C@@H](O[C@H]1OC(C(=O)Nc2nncs2)=C[C@H](O)[C@@H]1O)C(N)=O	> 100	194
CCc1ccccc1NC(=O)C1=C[C@H](O)[C@H](O)[C@@H](O[C@@H](C(N)=O)[C@H]2O[C@@H](n3ccc(=O)[nH]c3=O)[C@H](O)[C@@H]2OC)O1	50 (≈ 88.9 µM)	96
CO[C@H]1[C@@H](O)[C@H](n2ccc(=O)[nH]c2=O)O[C@@H]1[C@@H](O[C@H]1OC(C(=O)Nc2nc(C(C)(C)C)cs2)=C[C@H](O)[C@@H]1O)C(N)=O	100 (≈ 167 µM)	25.1
CO[C@H]1[C@@H](O)[C@H](n2ccc(=O)[nH]c2=O)O[C@@H]1[C@@H](O[C@H]1OC(C(=O)NCC(c2ccccc2)c2ccccc2)=C[C@H](O)[C@@H]1O)C(N)=O	> 100	204
CO[C@H]1[C@@H](O)[C@H](n2ccc(=O)[nH]c2=O)O[C@@H]1[C@@H](O[C@H]1OC(C(=O)NCCN)=C[C@H](O)[C@@H]1O)C(N)=O	100 (≈ 199 µM)	1200
CO[C@H]1[C@@H](O)[C@H](n2ccc(=O)[nH]c2=O)O[C@@H]1[C@@H](O[C@H]1OC(C(=O)NCCCSC)=C[C@H](O)[C@@H]1O)C(N)=O	50 (≈ 91.5 µM)	128
CO[C@H]1[C@@H](O)[C@H](n2ccc(=O)[nH]c2=O)O[C@@H]1[C@@H](O[C@H]1OC(C(=O)NCc2ccccn2)=C[C@H](O)[C@@H]1O)C(N)=O	100 (≈ 182 µM)	655
COc1ccc(CCNC(=O)C2=C[C@H](O)[C@H](O)[C@@H](O[C@@H](C(N)=O)[C@H]3O[C@@H](n4ccc(=O)[nH]c4=O)[C@H](O)[C@@H]3OC)O2)cc1OC	50 (≈ 80.3 µM)	40.2
CO[C@H]1[C@@H](O)[C@H](n2ccc(=O)[nH]c2=O)O[C@@H]1[C@@H](O[C@H]1OC(C(=O)Nc2nccs2)=C[C@H](O)[C@@H]1O)C(N)=O	25 (≈ 46.2 µM)	33.2
CO[C@H]1[C@@H](O)[C@H](n2ccc(=O)[nH]c2=O)O[C@@H]1[C@@H](O[C@H]1OC(C(=O)NC2CCCCCC2)=C[C@H](O)[C@@H]1O)C(N)=O	25 (≈ 45.1 µM)	48.7
CO[C@H]1[C@@H](O)[C@H](n2ccc(=O)[nH]c2=O)O[C@@H]1[C@@H](O[C@H]1OC(C(=O)NCc2ccc3ccccc3c2)=C[C@H](O)[C@@H]1O)C(N)=O	25 (≈ 41.8 µM)	184
COc1ccccc1NC(=O)C1=C[C@H](O)[C@H](O)[C@@H](O[C@@H](C(N)=O)[C@H]2O[C@@H](n3ccc(=O)[nH]c3=O)[C@H](O)[C@@H]2OC)O1	25 (≈ 44.3 µM)	54.9
CCCCCCCCCCCCCCNC(=O)C1=C[C@H](O)[C@H](O)[C@@H](O[C@@H](C(N)=O)[C@H]2O[C@@H](n3ccc(=O)[nH]c3=O)[C@H](O)[C@@H]2OC)O1	> 50	> 3820
CO[C@H]1[C@@H](O)[C@H](n2ccc(=O)[nH]c2=O)O[C@@H]1[C@@H](O[C@H]1OC(C(=O)NCCc2ccccc2Cl)=C[C@H](O)[C@@H]1O)C(N)=O	25 (≈ 41.9 µM)	46.9

The next lines start with the values.

MIC [1] [µg/mL]	IC50 [2] [nM]	Compound
12.5 (≈ 20.7 µM)		CO[C@H]1[C@@H](O)[C@H](n2ccc(=O)[nH]c2=O)O[C@@H]1[C@@H](O[C@H]1OC(C(=O)Nc2ccc(C(F)(F)F)cc2)=C[C@H](O)[C@@H]1O)C(N)=O
12.5 (≈ 22.2 µM)	35.6	CCc1ccc(NC(=O)C2=C[C@H](O)[C@H](O)[C@@H](O[C@@H](C(N)=O)[C@H]3O[C@@H](n4ccc(=O)[nH]c4=O)[C@H](O)[C@@H]3OC)O2)cc1
25 (≈ 44 µM)	22.9	CO[C@H]1[C@@H](O)[C@H](n2ccc(=O)[nH]c2=O)O[C@@H]1[C@@H](O[C@H]1OC(C(=O)NCCc2cccs2)=C[C@H](O)[C@@H]1O)C(N)=O
25 (≈ 39 µM)	35.9	CO[C@H]1[C@@H](O)[C@H](n2ccc(=O)[nH]c2=O)O[C@@H]1[C@@H](O[C@H]1OC(C(=O)Nc2ccccc2OCc2ccccc2)=C[C@H](O)[C@@H]1O)C(N)=O
12.5 (≈ 21.5 µM)	37.9	CO[C@H]1[C@@H](O)[C@H](n2ccc(=O)[nH]c2=O)O[C@@H]1[C@@H](O[C@H]1OC(C(=O)NCCc2ccc(F)cc2)=C[C@H](O)[C@@H]1O)C(N)=O
12.5 (≈ 22.2 µM)	889	CO[C@H]1[C@@H](O)[C@H](n2ccc(=O)[nH]c2=O)O[C@@H]1[C@@H](O[C@H]1OC(C(=O)NCc2ccccc2C)=C[C@H](O)[C@@H]1O)C(N)=O
12.5 (≈ 23 µM)	55.3	CCCCCCNC(=O)C1=C[C@H](O)[C@H](O)[C@@H](O[C@@H](C(N)=O)[C@H]2O[C@@H](n3ccc(=O)[nH]c3=O)[C@H](O)[C@@H]2OC)O1
12.5 (≈ 21.9 µM)	22.8	CO[C@H]1[C@@H](O)[C@H](n2ccc(=O)[nH]c2=O)O[C@@H]1[C@@H](O[C@H]1OC(C(=O)Nc2cccc(F)c2F)=C[C@H](O)[C@@H]1O)C(N)=O
25 (≈ 44.4 µM)	107	CO[C@H]1[C@@H](O)[C@H](n2ccc(=O)[nH]c2=O)O[C@@H]1[C@@H](O[C@H]1OC(C(=O)Nc2ccc(C)cc2C)=C[C@H](O)[C@@H]1O)C(N)=O
12.5 (≈ 21.9 µM)	26.3	CO[C@H]1[C@@H](O)[C@H](n2ccc(=O)[nH]c2=O)O[C@@H]1[C@@H](O[C@H]1OC(C(=O)Nc2ccc(F)cc2F)=C[C@H](O)[C@@H]1O)C(N)=O
25 (≈ 39.9 µM)	622	CCCCCCCCCCCCNC(=O)C1=C[C@H](O)[C@H](O)[C@@H](O[C@@H](C(N)=O)[C@H]2O[C@@H](n3ccc(=O)[nH]c3=O)[C@H](O)[C@@H]2OC)O1
25 (≈ 41.8 µM)	434	CCCCCCCCCCNC(=O)C1=C[C@H](O)[C@H](O)[C@@H](O[C@@H](C(N)=O)[C@H]2O[C@@H](n3ccc(=O)[nH]c3=O)[C@H](O)[C@@H]2OC)O1
25 (≈ 43.1 µM)	69	CO[C@H]1[C@@H](O)[C@H](n2ccc(=O)[nH]c2=O)O[C@@H]1[C@@H](O[C@H]1OC(C(=O)Nc2ccc([N+](=O)[O-])cc2)=C[C@H](O)[C@@H]1O)C(N)=O
25 (≈ 41.9 µM)	33.5	CO[C@H]1[C@@H](O)[C@H](n2ccc(=O)[nH]c2=O)O[C@@H]1[C@@H](O[C@H]1OC(C(=O)NCCc2ccc(Cl)cc2)=C[C@H](O)[C@@H]1O)C(N)=O
12.5 (≈ 20.9 µM)	33.5	CO[C@H]1[C@@H](O)[C@H](n2ccc(=O)[nH]c2=O)O[C@@H]1[C@@H](O[C@H]1OC(C(=O)NCCc2cccc(Cl)c2)=C[C@H](O)[C@@H]1O)C(N)=O
12.5 (≈ 23.1 µM)	55.5	CO[C@H]1[C@@H](O)[C@H](n2ccc(=O)[nH]c2=O)O[C@@H]1[C@@H](O[C@H]1OC(C(=O)NC2CCCCC2)=C[C@H](O)[C@@H]1O)C(N)=O
12.5 (≈ 22.8 µM)	23.7	CO[C@H]1[C@@H](O)[C@H](n2ccc(=O)[nH]c2=O)O[C@@H]1[C@@H](O[C@H]1OC(C(=O)Nc2ccc(C)cc2)=C[C@H](O)[C@@H]1O)C(N)=O
12.5 (≈ 21.7 µM)	53.8	CCCc1ccc(NC(=O)C2=C[C@H](O)[C@H](O)[C@@H](O[C@@H](C(N)=O)[C@H]3O[C@@H](n4ccc(=O)[nH]c4=O)[C@H](O)[C@@H]3OC)O2)cc1
